Measured values reported in BindingDB's records for doi:10.1021/jm4017448 (China Pharmaceutical University, 2013).
pEC50: −log10 of the molar value.

Target: Glucagon-like peptide 1 receptor (Homo sapiens, UniProt P43220)
Assay: Activation of human GLP-1 receptor overexpressed in HEK293 cells assessed as cAMP accumulation after 20 mins by HTRF assay

Glucagon-like peptide 1 receptor, sequence (P43220 whole entry): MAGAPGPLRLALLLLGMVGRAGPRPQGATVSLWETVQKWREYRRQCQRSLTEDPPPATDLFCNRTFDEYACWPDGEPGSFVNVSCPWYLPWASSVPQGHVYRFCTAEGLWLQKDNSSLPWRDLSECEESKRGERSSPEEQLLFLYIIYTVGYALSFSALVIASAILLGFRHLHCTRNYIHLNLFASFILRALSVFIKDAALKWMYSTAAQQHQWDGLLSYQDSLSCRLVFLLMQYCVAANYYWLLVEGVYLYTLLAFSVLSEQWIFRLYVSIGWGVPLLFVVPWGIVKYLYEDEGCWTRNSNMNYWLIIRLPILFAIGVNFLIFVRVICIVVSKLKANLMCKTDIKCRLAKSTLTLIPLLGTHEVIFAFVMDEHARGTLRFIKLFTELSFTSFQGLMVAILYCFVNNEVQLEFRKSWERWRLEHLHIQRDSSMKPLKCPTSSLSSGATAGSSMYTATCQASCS

Row | pEC50 | Structure (SMILES)
1 | 11.52 | CC[C@H](C)[C@H](NC(=O)[C@H](Cc1ccccc1)NC(=O)[C@H](CCC(=O)O)NC(=O)[C@H](CCCCN)NC(=O)[C@H](C)NC(=O)[C@H](C)NC(=O)[C@H](CCC(N)=O)NC(=O)CNC(=O)[C@H](CCC(=O)O)NC(=O)[C@H](CC(C)C)NC(=O)[C@H](Cc1ccc(O)cc1)NC(=O)[C@H](CO)NC(=O)[C@H](CO)NC(=O)[C@@H](NC(=O)[C@H](CC(=O)O)NC(=O)[C@H](CO)NC(=O)[C@@H](NC(=O)[C@H](Cc1ccccc1)NC(=O)[C@@H](NC(=O)CNC(=O)[C@H](CCC(=O)O)NC(=O)CNC(=O)[C@@H](N)Cc1cnc[nH]1)[C@@H](C)O)[C@@H](C)O)C(C)C)C(=O)N[C@@H](C)C(=O)N[C@@H](Cc1c[nH]c2ccccc12)C(=O)N[C@@H](CC(C)C)C(=O)N[C@H](C(=O)N[C@@H](CCCCN)C(=O)NCC(=O)N[C@@H](CCCNC(=N)N)C(=O)N[C@@H](CSC1CC(=O)N(CCCCCC(=O)Nc2ccc(C(c3c(O)c4ccccc4oc3=O)c3c(O)c4ccccc4oc3=O)cc2)C1=O)C(N)=O)C(C)C (some centres not stated)
2 | 11.52 | CC[C@H](C)[C@H](NC(=O)[C@H](Cc1ccccc1)NC(=O)[C@H](CCC(=O)O)NC(=O)[C@H](CS)NC(=O)[C@H](C)NC(=O)[C@H](C)NC(=O)[C@H](CCC(N)=O)NC(=O)CNC(=O)[C@H](CCC(=O)O)NC(=O)[C@H](CC(C)C)NC(=O)[C@H](Cc1ccc(O)cc1)NC(=O)[C@H](CO)NC(=O)[C@H](CO)NC(=O)[C@@H](NC(=O)[C@H](CC(=O)O)NC(=O)[C@H](CO)NC(=O)[C@@H](NC(=O)[C@H](Cc1ccccc1)NC(=O)[C@@H](NC(=O)CNC(=O)[C@H](CCC(=O)O)NC(=O)CNC(=O)[C@@H](N)Cc1cnc[nH]1)[C@@H](C)O)[C@@H](C)O)C(C)C)C(=O)N[C@@H](C)C(=O)N[C@@H](Cc1c[nH]c2ccccc12)C(=O)N[C@@H](CC(C)C)C(=O)N[C@H](C(=O)N[C@@H](CCCCN)C(=O)NCC(=O)N[C@@H](CCCNC(=N)N)C(N)=O)C(C)C
